“Also recorded” adds a separate entry of the source.
How the values were obtained:
[1] = molecular target: T1, E. coli MTAN (Escherichia coli, UniProt P0AF12); conditions: cited from earlier work; for substrate activity: result in words
T1 construct: consists of 232 amino acids belonging to E. coli MTAN and 10 residues from the N-terminal histidine fusion tag; histidine tag (N, cleaved yes); made in house

[2] = molecular target: T1, E. coli MTAN; conditions: overall / equilibrium dissociation constant; read-out: dissociation constant (Kd) following slow-onset inhibition, or Ki*; cited from earlier work
[3] = 9-deazapurine ring; cited from earlier work
[4] = molecular target: T1, E. coli MTAN; test: Slow-onset inhibition of E. coli MTAN by transition state analogues; assay type: biochemical; conditions: Kd 47 fM versus Km 4.3 μM

T1 sequence (P0AF12 whole entry, the tested form may be a part): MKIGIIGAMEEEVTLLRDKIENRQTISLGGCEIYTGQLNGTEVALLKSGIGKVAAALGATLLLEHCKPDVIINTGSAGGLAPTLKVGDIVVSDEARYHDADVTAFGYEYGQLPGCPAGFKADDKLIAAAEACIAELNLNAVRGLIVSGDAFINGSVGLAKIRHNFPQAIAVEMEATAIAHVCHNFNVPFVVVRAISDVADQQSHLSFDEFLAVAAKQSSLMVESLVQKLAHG

Nc1ncnc2c1ncn2[C@@H]1O[C@H](CSCC[C@H](N)C(=O)O)[C@@H](O)[C@H]1O [S-adenosylhomocysteine]
Km ([1]; substrate S-adenosylhomocysteine): 4.3 µM

(1S)-1-(9-deazaadenin-9-yl)-1,4-dideoxy-1,4-imino-5-methylthio-D-ribitol [MT-ImmA]
Kd [2]: 0.077 nM

CSC[C@H]1O[C@@H](n2cnc3c(N)ncnc32)C[C@@H]1O [2′-deoxy-MTA]
catalytic activity retained ([1]; relative to MTA): 85% | substrate activity [1]: good substrate

Nc1ncnc2cc[nH]c12 [9-deazaadenine]
pKa at N7 [3]: > 10

CSC[C@@H]1C[C@@H](O)[C@H](n2cnc3c(N)ncnc32)O1 [3′-deoxy-MTA]
substrate activity [1]: is not; also recorded: not a substrate

Nc1ncnc2c(CN3C[C@H](CSc4ccc(Cl)cc4)[C@@H](O)C3)c[nH]c12 [pC1PhT-DADMe-ImmA, (3R,4S)-4-(4-chlorophenylthiomethyl)-1-[(9-deazaadenin-9-yl]methyl)-3-hydroxypyrrolidine]
binds tighter than the substrate S-adenosylhomocysteine [4]: 91 million
